The species entered for experiment [1] is Mus musculus. Kind of experiment: CNS activity measured using screen test failure. The format is functional.
Another experiment deals with T1, Adenosine receptor A1 (Rattus norvegicus, UniProt P25099).
T1 sequence (P25099 whole entry): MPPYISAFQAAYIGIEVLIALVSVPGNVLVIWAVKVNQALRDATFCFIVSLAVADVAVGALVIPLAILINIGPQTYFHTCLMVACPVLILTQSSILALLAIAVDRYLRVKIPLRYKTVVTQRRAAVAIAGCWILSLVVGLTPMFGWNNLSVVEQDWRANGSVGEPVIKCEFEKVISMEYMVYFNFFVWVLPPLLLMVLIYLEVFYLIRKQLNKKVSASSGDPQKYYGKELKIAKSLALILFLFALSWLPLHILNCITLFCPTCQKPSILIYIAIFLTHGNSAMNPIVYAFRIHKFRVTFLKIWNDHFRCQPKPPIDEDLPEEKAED
Kind of experiment: Binding affinity for adenosine A1 receptor in rat brain membranes using [3H]CHA as radioligand. The format is cell membranes.

For experiment [2], the species on record is Mus musculus. The experiment is described as follows: Dose required to inhibit mouse locomotor activity by 60%. The format is functional.
The species named for experiment [3] is Rattus norvegicus. Kind of experiment: Cardiovascular activity (as 20% decrease in blood pressure). The format is functional.
For a further experiment, the target named is Adenosine A2 receptor (Rattus norvegicus, UniProt P29276+P30543).
The species named for experiment [4] is Rattus norvegicus. Kind of experiment: Cardiovascular activity (as 20% decrease in rate). The format is functional.
Experiment [5] is filed under the species Rattus norvegicus. Kind of experiment: Compound was evaluated for Cardiovascular activity (as 20% decrease in rate) in rats. The format is functional. The settings on record: Heart.

The structures appear in SMILES notation.

Description for Adenosine A2 receptor: Binding affinity for adenosine A2 receptor in rat striatal membranes using [3H]NECA as radioligand

Usually Ki stands for a dissociation constant, usually derived from enzyme kinetics or from competition with a known ligand. Turning to `C[C@H](Cc1ccccc1)Nc1ncnc2c1ncn2COCCO`, the LAD in the experiment listed under Mus musculus [1] and in the experiment filed under Mus musculus [2] was greater than 30 mg/kg in each case. The compound further returned a Ki on Adenosine receptor A1 of 68 µM.

`C[C@H](Cc1ccccc1)Nc1ncnc2c1ncn2C(CO)OC(O)CO` (stereo not given in full): the LAD in the experiment filed under Mus musculus [1] and in the experiment listed under Mus musculus [2] was greater than 100 mg/kg each time. Moreover, the Ki on Adenosine receptor A1 and on Adenosine A2 receptor was greater than 10 µM in each case. Besides, the values for the ED20 in the experiment listed under Rattus norvegicus [3] and in the experiment listed under Rattus norvegicus [4] were 0.9 mg/kg and greater than 10 mg/kg, respectively.

As to `C[C@H](Cc1ccccc1)Nc1[nH]cnc2ncnc1-2`, the LAD in the experiment listed under Mus musculus [1] and in the experiment filed under Mus musculus [2] was 100 mg/kg throughout. The Ki at Adenosine receptor A1 was 9.6 µM; at Adenosine A2 receptor it was 39 µM. Moreover, the results for the ED20 in the experiment filed under Rattus norvegicus [3] and in the experiment listed under Rattus norvegicus [4] were 8 mg/kg and greater than 10 mg/kg, respectively.

As to `C[C@H](Cc1ccccc1)Nc1ncnc2c1ncn2C1CCCO1` (stereo not given in full), the LAD in the experiment filed under Mus musculus [1] and in the experiment listed under Mus musculus [2] was greater than 100 mg/kg throughout. Also, the Ki worked out at 1.5 µM on Adenosine receptor A1 and 8.2 µM on Adenosine A2 receptor. Further, the ED20 in the experiment listed under Rattus norvegicus [3] and in the experiment filed under Rattus norvegicus [4] was greater than 3 mg/kg in each case.

Regarding `C[C@H](Cc1ccccc1)Nc1ncnc2c1ncn2C[C@H](O)CO`, the LAD in the experiment listed under Mus musculus [1] and in the experiment filed under Mus musculus [2] was greater than 100 mg/kg in each case. In addition, the inhibitory constant (Ki) on Adenosine receptor A1 and on Adenosine A2 receptor was greater than 10 µM each time.

Regarding `C[C@H](Cc1ccccc1)Nc1ncnc2c1ncn2[C@@H]1O[C@@H](CO)[C@@H](O)[C@H]1O`, the LAD in the experiment listed under Mus musculus [1] and in the experiment listed under Mus musculus [2] was greater than 100 mg/kg throughout. For the same compound, the ED20 in the experiment listed under Rattus norvegicus [3] and in the experiment listed under Rattus norvegicus [4] was greater than 10 mg/kg in each case.

Turning to `C[C@H](Cc1ccccc1)Nc1ncnc2c1ncn2[C@H]1C[C@H](O)[C@@H](CO)O1`, the LAD in the experiment filed under Mus musculus [1] and in the experiment filed under Mus musculus [2] was greater than 30 mg/kg throughout. This compound also gave a Ki at Adenosine receptor A1 of 1.9 µM.

For `C[C@H](Cc1ccccc1)Nc1ncnc2c1ncn2[C@@H]1O[C@H](CO)C[C@H]1O`, the LAD in the experiment listed under Mus musculus [1] and in the experiment filed under Mus musculus [2] was 100 mg/kg throughout. Also, the values for the Ki at Adenosine receptor A1 and at Adenosine A2 receptor were 0.029 µM and 6.9 µM, respectively. The ED20 amounted to 0.8 mg/kg in the experiment listed under Rattus norvegicus [3] and 0.4 mg/kg in the experiment filed under Rattus norvegicus [4].

Turning to `C[C@H](Cc1ccccc1)Nc1ncnc2c1ncn2C[C@@H](O)CO`, the LAD in the experiment filed under Mus musculus [1] and in the experiment filed under Mus musculus [2] was greater than 100 mg/kg in each case. Further, the inhibitory constant (Ki) on Adenosine receptor A1 and at Adenosine A2 receptor was greater than 10 µM throughout. For the same compound, the ED20 in the experiment filed under Rattus norvegicus [3] and in the experiment listed under Rattus norvegicus [4] was greater than 10 mg/kg in each case.

Regarding `C[C@H](Cc1ccccc1)Nc1ncnc2c1ncn2C1CCCCO1` (stereo not given in full), the LAD in the experiment filed under Mus musculus [1] is greater than 100 mg/kg; in the experiment filed under Mus musculus [2] it was 100 mg/kg. The Ki at Adenosine receptor A1 came to 1.2 µM; on Adenosine A2 receptor, 38 µM.

Consider `C[C@H](Cc1ccccc1)Nc1ncnc2c1ncn2C1CCCC(O)C1O` (stereo not given in full), for which the LAD in the experiment listed under Mus musculus [1] and in the experiment listed under Mus musculus [2] was greater than 100 mg/kg throughout. The results for the Ki at Adenosine receptor A1 and at Adenosine A2 receptor were 15 µM and greater than 10 µM, respectively. For the same compound, the ED20 in the experiment filed under Rattus norvegicus [3] and in the experiment listed under Rattus norvegicus [4] was greater than 3 mg/kg in each case.

As to `C[C@H](Cc1ccccc1)Nc1ncnc2c1ncn2C1OCC(O)C(O)C1O` (stereo not given in full), the Ki at Adenosine receptor A1 is 5.7 µM; at Adenosine A2 receptor, greater than 100 µM.

Consider `C[C@H](Cc1ccccc1)Nc1ncnc2c1ncn2CC(O)C(O)C(O)CO` (stereo not given in full), for which the LAD in the experiment listed under Mus musculus [1] and in the experiment listed under Mus musculus [2] was greater than 100 mg/kg throughout. Also, the values for the Ki on Adenosine receptor A1 and on Adenosine A2 receptor were greater than 2.2 µM and greater than 100 µM, respectively. For the same compound, the ED20 is 10 mg/kg in the experiment filed under Rattus norvegicus [3] and greater than 10 mg/kg in the experiment listed under Rattus norvegicus [4].

For `C[C@H](Cc1ccccc1)Nc1ncnc2c1ncn2C1O[C@H](C)[C@@H](O)[C@H]1O` (stereo not given in full), the values for the LAD in the experiment listed under Mus musculus [1] and in the experiment listed under Mus musculus [2] were 100 mg/kg and 30 mg/kg, respectively. Besides, the Ki came to 0.025 µM at Adenosine receptor A1 and 3.3 µM on Adenosine A2 receptor. Besides, the ED20 in the experiment listed under Rattus norvegicus [3] is 0.05 mg/kg; in the experiment listed under Rattus norvegicus [4], greater than 0.3 mg/kg.

For `C[C@H](Cc1ccccc1)Nc1ncnc2c1ncn2C1OC[C@](O)(CO)[C@H]1O` (stereo not given in full), the results for the Ki on Adenosine receptor A1 and on Adenosine A2 receptor were greater than 10 µM and greater than 50 µM, respectively.

As for `CSC[C@H]1OC(n2cnc3c(N[C@H](C)Cc4ccccc4)ncnc32)[C@H](O)[C@@H]1O` (stereo not given in full), the LAD in the experiment listed under Mus musculus [1] and in the experiment listed under Mus musculus [2] was greater than 100 mg/kg each time. Also, the Ki was 0.029 µM on Adenosine receptor A1 and 56 µM on Adenosine A2 receptor. Also, the ED20 in the experiment filed under Rattus norvegicus [3] was 0.023 mg/kg; in the experiment filed under Rattus norvegicus [4], 3 mg/kg.

With `C[C@H](Cc1ccccc1)Nc1ncnc2c1ncn2C1O[C@H](CCl)[C@@H](O)[C@H]1O` (stereo not given in full), the LAD in the experiment listed under Mus musculus [1] is 100 mg/kg; in the experiment listed under Mus musculus [2], 10 mg/kg. Besides, the Ki at Adenosine receptor A1 came to 0.0016 µM; on Adenosine A2 receptor, 1.9 µM. The ED20 was found to be 0.1 mg/kg in the experiment listed under Rattus norvegicus [3] and 0.08 mg/kg in the experiment filed under Rattus norvegicus [4].

Take `C[C@H](Cc1ccccc1)Nc1ncnc2c1ncn2[C@@H]1O[C@H](CO)[C@@H](O)[C@H]1O` [(R)-PIA]: the LAD in the experiment listed under Mus musculus [1] was 3 mg/kg; in the experiment filed under Mus musculus [2], 1 mg/kg. The same compound came in with an ED20 in the experiment filed under Rattus norvegicus [5] of 0.006 mg/kg.
